# In patent US11013673B2, “Cosmetic compositions containing quinones and their topical use on skin and hair” (Repairogen Corp, priority 2016, dated 2021):
# How the values were obtained:
# CUL4A [1] = biological target: CUL4A (Homo sapiens, UniProt Q13619); assay: BPB-CUL4A AlphaLISA assay (cell free CUL4 inhibition assay); type: biochemical
# Method: (§1) A BPB-CUL4A AlphaLISA assay was performed using the 54 compounds to determine their CUL4A inhibitory properties in vitro. Next, these 54 leads were tested for their cell-based inhibitory activity against CUL4A. A first cell-based assay involved the inhibition of DNA damage-binding protein 2 (DDB2) degradation in mouse embryonic fibroblast (MEF) cells in vitro. To determine the specificity of the compounds, another cell-based assay was performed to determine the inhibition of IKBa degradation in HeLa cells in vitro. Preferably, the compounds show high DDB2 inhibition and less inhibition of IKBa degradation. IkBa is a target of […], and this assay provides insight into the specificity of the compounds. These tests led to the selection of three active compounds that passed inhibition and selectivity thresholds and, thus, were suitable for use in cosmetic compositions. These were thymoquinone, lapachol and myrtucommulone C.
# The Table below reports the ability of compounds to disrupt CUL4A activity in vitro (in a cell free CUL4 inhibition assay) ascertained from the BPB-CUL4A AlphaLISA assay. Activity above 30% was set to distinguish true hits from false positives.
# CUL4A [2] = biological target: T1, CUL4A (Mus musculus, UniProt Q3TCH7); assay: cell-based assay, inhibition of DDB2 degradation in MEF cells after UV; conditions: DDB2 remaining after UV treatment over baseline compared to DMSO control
# T1 construct: endogenous in cells; host or cells: mouse embryonic fibroblast (MEF) cells
# T1 sequence (Q3TCH7 whole entry): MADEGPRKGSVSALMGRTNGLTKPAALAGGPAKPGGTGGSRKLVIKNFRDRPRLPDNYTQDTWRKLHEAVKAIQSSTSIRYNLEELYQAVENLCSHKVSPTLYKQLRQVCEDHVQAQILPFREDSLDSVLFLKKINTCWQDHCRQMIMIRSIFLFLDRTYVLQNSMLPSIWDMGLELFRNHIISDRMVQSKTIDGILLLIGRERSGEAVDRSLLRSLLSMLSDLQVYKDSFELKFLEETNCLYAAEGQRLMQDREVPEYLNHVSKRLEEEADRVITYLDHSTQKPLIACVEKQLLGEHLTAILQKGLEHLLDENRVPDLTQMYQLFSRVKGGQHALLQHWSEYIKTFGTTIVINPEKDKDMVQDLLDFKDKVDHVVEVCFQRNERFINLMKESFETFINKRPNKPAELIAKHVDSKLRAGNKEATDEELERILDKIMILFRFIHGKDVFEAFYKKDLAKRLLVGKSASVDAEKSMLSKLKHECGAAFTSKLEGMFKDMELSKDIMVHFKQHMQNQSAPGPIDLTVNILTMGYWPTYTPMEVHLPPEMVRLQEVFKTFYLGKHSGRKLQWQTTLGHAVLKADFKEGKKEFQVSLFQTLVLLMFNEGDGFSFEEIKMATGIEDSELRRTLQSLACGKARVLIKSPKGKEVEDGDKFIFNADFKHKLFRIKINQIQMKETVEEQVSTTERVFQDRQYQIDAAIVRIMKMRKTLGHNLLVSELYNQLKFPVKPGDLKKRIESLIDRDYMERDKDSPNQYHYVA
# Method: as §1
# In this cell-based assay, the % is DDB2 ([…]) remaining after UV treatment over baseline compared to a control group. In the DMSO control group, the DDB2 remaining % was between 20-30%.
# human fibroblast cell = assay: Human Fibroblast Cell Assay: CPD ELISA of DNA damage after UVB; type: cell-based; conditions: UVB 35 mJ/cm^2, 12 hours
# Method: Lastly, tests were conducted on human skin cells. The testing was performed using neonatal foreskin […], a type of skin cell that is a common model for skin testing across the cosmetic industry. The skin cells were purchased from Thermo Fisher Scientific Co. (NY) and grown in Dulbecco Modified Eagle Medium (DMEM) supplemented with 10% Fetal Bovine Serum (Thermo Fisher Scientific). Cultures were maintained at 37° C. within an air atmosphere of 5% carbon dioxide and about 95% humidity.
# The skin cells were seeded in 12-well plates and incubated for 24 hours. After incubation, the cells were washed in […] (PBS) and irradiated with UVB at a dosage of 35 mJ/cm^2 using a Viber Lourmat BIO-Sun System (Marne-la-Vallee, France). The test compounds and control materials were added to the medium immediately following UVB irradiation; the treated mediums were allowed to continue for 12 hours at 37° C. under the air atmosphere with 5% carbon dioxide at about 95% humidity. In parallel, each test compound was added to non-irradiated cells as baseline controls. Untreated cells were used as negative controls. All treatments were performed in triplicate. Dosage levels for samples were 12.5 microMolar except lapachol dosed at 3 microMolar. Following incubation, the cells were washed with PBS, collected and stored at −80° C.
# DNA was extracted from the collected cells using a QIAamp Blood Kit (QIAGEN, Calif., USA) in accordance with the manufacturer's protocol. The amounts of cyclobutane pyrimidine dimers (CPDs) in the various samples were determined by the CPD ELISA protocol. In accordance with this protocol, an OXISELECT® UV-Induced DNA Damage ELISA Kit (Cell Biolabs Inc., CA, USA) was employed for the testing done in accordance with the manufacturer's instructions. Amounts of CPD in UVB-treated samples were determined in percentage relative to the value of untreated fibroblasts. The greater the measured % CPD, the greater the DNA damage. Thus, in the Table below, the smaller the “Avg (% Untreated)” value, the better is the UVB damage induced inhibitory effect.
# Mean standard deviation comparisons between data groups employed the GraphPad Prism 6.05 software (GraphPad Software, CA, USA). Statistical analysis was performed using ANOVA with Holm-Sidak's test or unpaired t-test with Welch's correction.
# [3] = tested on: primary human keratinocytes; assay: cytotoxicity assay (Cell Titer96 Aqueous One) on keratinocytes; type: cell-based; conditions: 24 h
# Method: (§2) Normal primary adult human keratinocytes derived from a donor were purchased from PromoCell (Heidelberg, Germany) and cultured in keratinocytes growth medium (Epilife+EDGS, Thermo Fisher Scientific, NY, USA). Keratinocytes cultures were maintained at 37° C. with 5% CO2 and ˜95% humidity.
# (§3) Cytotoxicity was evaluated using the Cell Titer96 Aqueous One (Promega, Wis., USA) basic test according to manufacturer's instructions. Cells were seeded at a density of 10,000 cells/well in a 96-well plate and cultured overnight. Treatments with seven doses of compounds were carried out for 24 hours, in triplicates. Colorimetric analysis was performed using an absorbance of 490 nm. Inhibition of viability of more than 20% of the control values was considered cytotoxic.
# The cytotoxicity assay on primary human keratinocytes from adult donor was performed after 24 h of culture in the presence of different concentrations of each compound, as indicated in FIG. 2A and Table 1.
# [4] = tested on: primary human fibroblasts; assay: cytotoxicity assay (Cell Titer96 Aqueous One) on fibroblasts; conditions: 24 h
# Method: Normal human dermal adult fibroblasts derived from a donor of were purchased from CELLnTec (Bern, Switzerland) and grown in DMEM supplemented with 10% FBS (Life Technologies, CA, USA). Fibroblasts cultures were maintained at 37° C. with 5% CO2 and ˜95% humidity.
# as §3
# The cytotoxicity assay on primary human fibroblasts from adult donor was performed after 24 h of culture in the presence of different concentrations of each compound, as indicated in FIG. 2B and Table 2.
# [5] = tested on: human epidermal keratinocytes; assay: microarray analysis of differential gene expression in keratinocytes; conditions: for number of genes downregulated / number of genes upregulated: 24 h
# Method: as §2
# Normal primary human keratinocytes were seeded in 6-well plates and incubated for 24 h. Cells were then washed in PBS (Thermo Fisher Scientific) and reincubated for 24 more hours in the presence of RGN1518 and RGN1538 (each at two different concentrations), vehicle control, or positive control. Following treatment, the cells were washed with PBS, collected and stored frozen at −80° C. before RNA extraction.
# RNA was extracted using a Qiagen RNeasy kit (Qiagen, CA, USA) according to manufacturer's protocol.
# 18 vials containing RNA isolated from human epidermal keratinocytes and 18 vials containing RNA isolated from human fibroblasts were shipped to Thermo Fisher Scientific, Advanced BioMedical Laboratories (Cinnaminson, N.J.) on dry ice for Affymetrix Human Clariom D array processing.
# The differential gene expression was obtained using a threshold of 0.05 for statistical significance (p-value) and a log fold change of expression with absolute value of at least 1. Gene expression was further analysed using Differential Expression Analysis and Pathway Analysis iPathwayGuide) by Advaita Bioinformatics Services (Plymouth, Mich.) in the context of pathways obtained from the Kyoto Encyclopedia of Genes and Genomes (KEGG) database (Release 84.0+/10-26, October 17) (Kanehisa et al., 2000; Kanehisa et al., 2002), gene ontologies from the Gene Ontology Consortium database (2017 Nov. 6) (Ashburner et al., 2000; Gene Ontology Consortium, 2001), miRNAs from the miRBase (Release 21) and […] (Targetscan version:Mouse:7.1, Human:7.1) databases (Agarwal et al., 2015; Nam et al., 2014; Griffiths-Jones et al., 2008; Kozomara and Griffiths-Jones, 2014; Friedman et al., 2009; Grimson et al., 2007), and diseases from the KEGG database (Release 84.0+/10-26, October 17) (Kanehisa et al., 2000; Kanehisa et al., 2002). All references are available in the reports for bioinformatics analysis of differential gene expression provided by Advaita Bioinformatics Services at the following link.
# human fibroblasts = assay: microarray analysis of differential gene expression in fibroblasts; type: cell-based
# Sequence of CUL4A (Homo sapiens, UniProt Q13619) (Q13619 whole entry, species assumed): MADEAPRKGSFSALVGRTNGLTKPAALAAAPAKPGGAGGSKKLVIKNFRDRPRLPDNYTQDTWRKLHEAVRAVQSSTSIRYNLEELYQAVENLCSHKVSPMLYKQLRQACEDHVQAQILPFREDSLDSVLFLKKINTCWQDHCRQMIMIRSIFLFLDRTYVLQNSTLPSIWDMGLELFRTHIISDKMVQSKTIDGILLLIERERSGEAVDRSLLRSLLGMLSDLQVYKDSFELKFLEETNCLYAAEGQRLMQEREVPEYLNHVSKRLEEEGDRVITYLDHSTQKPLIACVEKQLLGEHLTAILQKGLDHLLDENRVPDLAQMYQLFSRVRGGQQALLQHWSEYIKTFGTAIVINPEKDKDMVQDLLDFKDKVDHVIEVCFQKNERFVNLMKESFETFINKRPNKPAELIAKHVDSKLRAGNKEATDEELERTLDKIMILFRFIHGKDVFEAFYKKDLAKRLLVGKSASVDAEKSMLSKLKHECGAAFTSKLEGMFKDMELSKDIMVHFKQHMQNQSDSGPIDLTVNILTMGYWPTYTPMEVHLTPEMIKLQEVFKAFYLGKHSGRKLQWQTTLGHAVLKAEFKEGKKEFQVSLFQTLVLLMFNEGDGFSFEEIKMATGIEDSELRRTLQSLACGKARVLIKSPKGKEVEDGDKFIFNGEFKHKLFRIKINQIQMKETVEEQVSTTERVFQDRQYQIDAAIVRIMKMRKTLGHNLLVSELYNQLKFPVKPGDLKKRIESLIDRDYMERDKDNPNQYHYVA
structure (smiles),measurement,setting,value
"CC(C)=CCC1=C(O)C(=O)c2ccccc2C1=O [Lapachol, 2-hydroxy-3-(3-methylbut-2-enyl)naphthalene-1,4-dione]",% Inhibitory Activity,CUL4A [1],34.4%
same,DDB2 remaining after UV (% of baseline),CUL4A [2],80%
same,Avg (% Untreated),human fibroblast cell; 3 microMolar,2076%
same,Avg (% of untreated),[3]; 15.5 μM,86%
same,Avg (% of untreated),[3]; 31.1 μM,86%
same,Avg (% of untreated),[3]; 62.25 μM,84%
same,concentrations that showed no cytotoxicity,[3]; cytotoxic = inhibition of viability of more than 20%,up to 62.25 μM
same,Avg (% of untreated),[4]; 15.5 μM,99%
same,Avg (% of untreated),[4]; 31.1 μM,98%
same,Avg (% of untreated),[4]; 62.25 μM,100%
same,concentrations that showed no cytotoxicity,[4]; unit not given,up to 62.25
same,gene expression in Metabolism of Xenobiotics by Cytochrome P450 and Steroid Hormone Biosynthesis Pathways,[5],induced differential gene expression
same,number of genes downregulated,"[5]; 31 μM, of 24905 assessed genes",556 genes
same,number of genes upregulated,"[5]; 31 μM, of 24905 assessed genes",250 genes
same,number of genes downregulated,[5]; 62 μM,461 genes
same,number of genes upregulated,[5]; 62 μM,258 genes
same,expression of phase-I detoxification and steroid hormone biosynthesis genes,"[5]; CYP1A1, CYP1B1, CYP2BG, GSTM3, AKR1C1, AKR1C2, AKR1C3, AKR1B15",upregulated
same,expression of genes important for normal differentiation and function of skin,"[5]; FGF2, CSF1, SLCO2A1, SERPINB1",upregulated
same,expression of genes associated with inflammation,"[5]; IL6, IL1R2, IL2RG, IL1RL1",upregulated
same,expression of Cell Cycle Pathway genes,"[5]; MAD2L1, CDC20, CCNE2, CCNA2, CCNB2, CCNB1, BUB1, PLK1, CDC25C, BUB1B, TTK, ORC1, MCM6",downregulated
same,number of genes downregulated,"human fibroblasts; 31 μM, 24 h, of 24905 genes",30 genes
same,number of genes upregulated,"human fibroblasts; 31 μM, 24 h, of 24905 genes",104 genes
same,expression of RGCC and PTGS2 (regulation of fibroblast growth factor production),human fibroblasts; at either concentration,upregulated
same,number of genes involved in regulation of endothelial cell migration upregulated,human fibroblasts; out of 70 genes,3 genes
"CC1=CC(=O)C(C(C)C)=CC1=O [Thymoquinone, 2-isopropyl-5-methylbenzo-1,4-quinone]",% Inhibitory Activity,CUL4A [1],70.4%
same,DDB2 remaining after UV (% of baseline),CUL4A [2],85%
same,Avg (% Untreated),human fibroblast cell; 12.5 microMolar,2554%
"NC(=O)c1cccnc1 [Niacinamide, reference compound]",Avg (% Untreated),human fibroblast cell; 12.5 microMolar,2216%
same,Avg (% of untreated),[3]; 3.1 mM,105%
same,Avg (% of untreated),[3]; 6.2 mM,106%
same,Avg (% of untreated),[3]; 12.5 mM,104%
same,Avg (% of untreated),[3]; 25 mM,108%
same,Avg (% of untreated),[3]; 50 mM,95%
same,Avg (% of untreated),[3]; 100 mM,58%
same,Avg (% of untreated),[3]; 200 mM,46%
same,concentrations that showed no cytotoxicity,[3],up to 50 mM
same,Avg (% of untreated),[4]; 3.1 mM,100%
same,Avg (% of untreated),[4]; 6.2 mM,99%
same,Avg (% of untreated),[4]; 12.5 mM,97%
same,Avg (% of untreated),[4]; 25 mM,100%
same,Avg (% of untreated),[4]; 50 mM,91%
same,Avg (% of untreated),[4]; 100 mM,89%
same,Avg (% of untreated),[4]; 200 mM,61%
same,concentrations that showed no cytotoxicity,[4],up to 100 mM
same,expression of ASS1 and PTGS2,[5],affected
same,expression of DNAJB9,[5],downregulated
same,expression of IL1RG and IL1RL1 receptors,[5],no effect
same,expression of IL6 and IL1RL1 receptor,[5],upregulated
same,expression of TYMS,[5],downregulated
same,expression of VEGFA,[5],no effect
same,gene expression in Metabolism of Xenobiotics by Cytochrome P450 and Steroid Hormone Biosynthesis Pathways,[5],no major effect
same,expression of cell cycle genes,"[5]; CDK1, PLK1, RB1, CDC25C, CDC25B, MAD2L1, CDKN2B, CCNA2, MAD1L1, TTK, ZBTB17, RBL1, CCNB1, CCNB2, BUB1, CDC20, PTTG1, BUB1B",downregulated only some of the genes
same,expression of Golgi apparatus genes with the exception of MGAT4A,"[5]; COG6, ARFGAP3, IFT20",not affected
same,expression of FGF2,[5]; compared with RGN1518,upregulated FGF2 to lesser extend
same,Mineral Absorption Pathway,human fibroblasts,affected
same,"vascular wound healing, spreading of epidermal cells and vasculature development (gene profile)",human fibroblasts,no effect
"CC(C)C(=O)c1c(O)c(C(C2=C(O)C(C)(C)C(=O)C(C)(C)C2=O)C(C)C)c(O)c2c1OC1=C(C(=O)C(C)(C)C(=O)C1(C)C)C2C(C)C (centres unmarked) [Myrtucommulone C, myrtucommulone C]",% Inhibitory Activity,CUL4A [1],48.9%
same,DDB2 remaining after UV (% of baseline),CUL4A [2],115%
same,Avg (% Untreated),human fibroblast cell; 12.5 microMolar,1362%
